From patent publication US20230172984A1, “CLEARANCE OF SENESCENT CELLS BY ACTIVATION OF iNKT CELLS” (THE REGENTS OF THE UNIVERSITY OF CALIFORNIA, priority 2020, published 2023)

What was measured:
[1] = Bleomycin lung injury, hydroxyproline assay (whole lung collagen content); format: in vivo, mouse; conditions: bleomycin 3 U/kg, α-GalCer or vehicle at day 10; FIG. 4D
Experimental: MATERIALS AND METHODS. Mouse husbandry. All procedures involving mice were performed according to the IACUC standards following ethics approval by the animal committee at the University of California, San Francisco. Male C57BL6/J on chow or HFD fed mice. HFD mice were fed a high-fat diet (60% kcal from fat) from 6 weeks until 22 weeks of age. All experiments on HFD mice were performed at 22-24 weeks total age (16-18 weeks on HFD). Age-matched male C57BL6/J mice on standard rodent chow diet were used as controls. For the lung injury model, 10-week-old male C57BL/6J mice were used. The animals were divided into three groups: the control group, the injured group, and the α-GalCer treated group. The animals in the control group received vehicle only (i.p.) on day 10. The injured group animals received bleomycin (3 U/kg) via the intratracheal route at the start of the experiment (day 0). The animals in the α-GalCer treated groups received bleomycin (3 U/kg) on day 0, and i.p. injection of α-GalCer (2 μg/mouse) on day 10. The animals in all the groups were sacrificed on day 14, and lungs were harvested for isolation of primary pulmonary Alveolar Type II cells (ATII) on the same day. For the hydroxyproline assay, mice were euthanized 21 days after injury. Bleomycin lung injury. […] Absorbance was measured at 550 nm and the values were computed from the standard curve.

[2] = pre-clinical and clinical studies, Wolf et al., 2018; cited from earlier work
[3] = Lynch 2012, Schipper 2012, Ji 2012; cited from earlier work
[4] = Bleomycin lung injury survival study; format: in vivo, mouse; conditions: bleomycin 4 U/kg intratracheal, α-GalCer or vehicle at day 5, vs vehicle-injected mice; FIG. 4E
Excerpt: Bleomycin lung injury. For measurement of lung collagen, 3 U/kg Bleomycin was instilled intratracheally, with injection of α-GalCer or vehicle at day 10, followed by lung harvest for hydroxyproline assay at 20 days. For the survival study, 4 U/kg Bleomycin was instilled intratracheally, with injection of α-GalCer or vehicle at day 5.

[5] = test system: Cdkn2a^Ink4a, Ccl2, Serpine1 mRNA; assay: Bleomycin-induced lung injury model, qRT-PCR of senescence and SASP markers in CD45-depleted lung cells; format: in vivo, mouse; conditions: bleomycin-injured mice, GalCer day 10, harvest day 14; FIG. 4B
Experimental: MATERIALS AND METHODS. Mouse husbandry. All procedures involving mice were performed according to the IACUC standards following ethics approval by the animal committee at the University of California, San Francisco. Male C57BL6/J on chow or HFD fed mice. HFD mice were fed a high-fat diet (60% kcal from fat) from 6 weeks until 22 weeks of age. All experiments on HFD mice were performed at 22-24 weeks total age (16-18 weeks on HFD). Age-matched male C57BL6/J mice on standard rodent chow diet were used as controls. For the lung injury model, 10-week-old male C57BL/6J mice were used. The animals were divided into three groups: the control group, the injured group, and the α-GalCer treated group. The animals in the control group received vehicle only (i.p.) on day 10. The injured group animals received bleomycin (3 U/kg) via the intratracheal route at the start of the experiment (day 0). The animals in the α-GalCer treated groups received bleomycin (3 U/kg) on day 0, and i.p. injection of α-GalCer (2 μg/mouse) on day 10. […] RNA extraction and Quantitative reverse transcriptase PCR.RNA was extracted with RNA extraction reagent using the commercial total RNA micro-prep kit according to the product instructions. Total RNA was quantified by nanovolume photospectrometer and fluorometer. […] Quantification was performed using with the delta-delta CT method, using Cyclophilin A (Ppia) as a housekeeping gene.

CCCCCCCCCCCCCCCCCCCCCCCCCC(=O)N[C@@H](CO[C@H]1O[C@H](CO)[C@H](O)[C@H](O)[C@H]1O)[C@H](O)[C@H](O)CCCCCCCCCCCCCC [GalCer, alpha-Galactosylceramide]
lung hydroxyproline content (fibrosis) [1]: significantly reduced lung hydroxyproline content | tolerability / side effects [2]: generally been well-tolerated over a wide range of doses with minimal side effects | metabolic phenotypes in the HFD mouse model (literature) [3]: reverse adverse metabolic phenotypes | mortality (Kaplan Meier survival) [4]: significantly reduced | mRNA levels of senescence (Cdkn2a^Ink4a) and SASP (Ccl2, Serpine1) markers in CD45^− lung cells [5]: reduced mRNA levels of these marker genes
